Data from paper PMC13233820, “Recruitment of Mre11 to recombination sites during meiosis” (Nature Communications, 2026).

Key:
[1] = tested on: pUC19 plasmid substrate; experiment: Gel shift assay, plasmid DNA binding; conditions: 1 nM pUC19; reduced-mobility complexes (supershift) at higher concentration
Procedure: Proteins were diluted to their appropriate working concentrations in their respective storage buffers. […] Reactions were assembled at 30 °C for 30 mins and resolved in a 1% agarose (SeaKem LE Agarose, Lonza) at 60 V for 120 mins at 4 °C. Gels were stained with SYBR Gold Nucleic Acid Gel Stain (S11497, Invitrogen) for 40 mins and visualized with Amersham Typhoon biomolecular imager (Cytiva).

[2] = tested on: Mer2 condensates; experiment: Colocalization of fluorescently-labeled Mer2 and Mre11 condensates; assay type: binding, Saccharomyces cerevisiae; conditions: condensates assembled separately on DNA then incubated together
Procedure: Fig. 4 Mer2 recruits Mre11 during meiosis. a Effect of 1,6-hexanediol treatment on meiotic Mre11^myc foci visualized by immunofluorescence analysis of yeast nuclear spreads 4 hours after transfer to SPM. […] At least 22 tetrads were dissected for each strain (n ≥ 88 spores). e Quantification of sub-population of cells showing discrete Mre11 foci and aggregated Mre11 foci in indicated strains. Images used for analysis were from the same experiments in (b) and (d). f Colocalization of fluorescently-labeled Mer2 with wild-type or truncated Mre11. […] The number of images analyzed for each sample were WT (n = 11), Mre11^Δ10-270 (n = 13), Mre11^Δ290-472 (n = 15), Mre11^ΔIDR (n = 10), Mre11^ΔC49 (n = 13). Error bars represent mean ± SD from the indicated (n) fields of view. p-values compared to Mre11-WT are: Mre11^Δ10-270 (0.006), Mre11^Δ290-472 (0.0003), Mre11^ΔIDR (<0.0001), Mre11^ΔC49 (<0.0001). g Colocalization of fluorescently-labeled Mre11-C49 and Mer2. Condensates were assembled by mixing 800 nM of ^mScarletMre11-C49 and 200 nM of ^eGFPMer2 for 30 min prior to imaging. […]
Proteins were diluted to a 10 × stock of their appropriate working concentrations in their respective storage buffers. […] Images were analyzed with ImageJ using a custom-made script. […] Masked foci were counted, and the intensity inside the focus mask was integrated. […] Data were analyzed using Graphpad Prism 10.4.0.

[3] = tested on: supercoiled pUC19 plasmid DNA; experiment: In vitro condensation assay of Mre11 (fluorescence microscopy); assay type: biochemical
Procedure: Fig. 1 Mre11 and the MRX complex assemble DNA-dependent condensates in vitro. a, c Effect of the presence of plasmid DNA on condensation of (a) Alexa488-labeled Mre11 (n = 11 and 9 fields of view for reactions without and with DNA, respectively) and (c) eGFP-tagged MRX (n = 11 (- DNA) and 9 ( + DNA)). Experiments were performed without PEG. b, d Effect of DNase I, in the absence of PEG, on (b) Mre11 (n = 9 (no treatment) and 11 (DNase I)) and (d) MRX (n = 9 (no treatment) and 11 (DNase I)) condensates. Condensates were pre-assembled for 20 min with 5.7 nM pUC19 prior to challenge. Quantification represents total foci intensity (green) in a field of view and total number of foci per 1000 µm^2 (magenta). Foci intensity is normalized to the mean intensity of samples with DNA for (a, c) and untreated samples for (b, d). […] Quantification represents total foci intensity (green) in a field of view (normalized to the mean of + PEG images) and total number of foci per 1000 µm^2 (magenta). […]
Fig. 2 The C-terminal IDR of Mre11 is required for condensation. a AlphaFold2 predicted model of Mre11 (AF-P32829-F1-v4). […] Quantification represents total fluorescence intensity (green) in a field of view and total number of foci per 1000 µm^2 (magenta). […]

Substance: Mre11: full-length yeast Mre11 nuclease, recombinant from Sf9 cells
- Protein concentration up to which fast-migrating complexes form [1]: ~25 nM
- Colocalization with Mer2 condensates (in words) [2]: nearly absolute colocalization
- Condensate formation (in words) ([3]; in the presence of plasmid DNA): form large clusters visible by fluorescence microscopy
- Protein concentration above which foci intensity steeply increases ([3]; protein titration, plasmid DNA, 5% PEG): above 200 nM
